In patent US3997506A (priority 1974, dated 1976):
Several values for one entry are separate records, joined by “and”; a condition that tells them apart may be missing. Equal entries are not always repeated. Where two headings read alike, the source gives them in different places.

Columns and labels:
[1] = test system: leucocytes from rats; conditions: individual rat, 2 mg/kg oral
[2] = test system: human leucocytes; conditions: 0.01 μg/ml to 10 μg/ml; up to 30 hours; no PHA
[3] = test system: Sprague Dawley SIV 50 rat; assay type: in vivo, male and female Sprague Dawley SIV 50 rat; conditions: for Death rate: 10 days
Text: The high toxicity of the new derivative of colchicine (N-desacetyl-N-adamantoyl-thiocolchicine) has been investigated through the oral way with the male and female Sprague Dawley SIV 50 rat having an average weight of 100 g.
Two experiments have been carried out. In the first one, only the high toxicity of the derivative has been studied; in the second one, the high toxicity of the derivative has been compared with that of colchicine.
The derivative and colchicine have been administered in suspension in propylene glycol through an oesophageal tube at the rate of 2 ml per rat for the first experiment and of 1 ml for the second one.
The animals have been observed for 10 days.

[4] = test system: leucocytes from rats; conditions: 6 hours after administration, 2 mg/kg oral
[5] = test system: leucocytes from rats; assay type: in vivo, Sprague Dawley SIV 50 he-rats; conditions: 2 mg/kg oral
[6] = test system: phagocytosis by peritoneal macrophages of mice; assay type: cell-based; conditions: for % phagocytosis with respect to controls (= 100%): 80 min
[7] = in vitro; assay type: cell-based, human; conditions: human, leucocytes, read-out: % of dead cells
Protocol: (§1) The cytotoxicity has been investigated on human leucocytes by means of the viability test with Trypan blue.
(§2) a. In a first experimentation cultures of leucocytes of a voluntary […] were prepared and caused to undergo incubation with phytohemagglutinin (PHA) and with different concentrations of colchicine or of its derivative (C1 = 2.5 μg/ml of culture, C3 = 10 μg/ml, C5 = 30 μg/ml, C6 = 50 μg/ml). Leucocytes only containing PHA served as controls.
(§3) After 3, 42, 68 and 72 hours of incubation a sample of each culture was contacted by a drop of Trypan blue and laid on a slide of a microscope. Then took place the counting of the dead cells (those with assumed an […] colour) and of all the cells present on the slide in order to obtain the ratio of the number of dead cells to the total number of cells. The results expressed as a rate in per cent are shown in the accompanying table 8.
(§4) b. After the experimentation which has just been described, the study of cytotoxicity has been continued with two other samples of human leucocytes still by means of the viability test with Trypan blue.
(§5) C1 = 2.5 μg/ml of culture
(§6) C6 = 50 μg/ml of culture;
(§7) and for the carboxy-1-adamantane fraction to:
(§8) C3 = 4.5 μg/ml of culture
(§9) C6 = 22.5 μg/ml of culture.
(§10) Leucocytes only containing phytohemagglutinin and others containing phytohemagglutinin and 50 μl of methanol served as controls.
(§11) The percentage of dead cells was determined after different numbers of hours of incubation.

[8] = test system: human leucocytes; test: in vitro; assay type: cell-based; conditions: for % of dead cells: C6 = 50 μg/ml
Protocol: as §1, §2, §3, §4, §5, §6, §7, §8, §9, §10, §11

[9] = in vitro; conditions: human, leucocytes, % of dead cells (Average of 2 determinations), no PHA
[10] = 6 hours after administration, individual rat, 2 mg/kg
[11] = before administration, individual rat, 2 mg/kg
[12] = first experimentation, C1 = 2.5 μg/ml
[13] = first experimentation, C3 = 10 μg/ml
[14] = first experimentation, C5 = 30 μg/ml

COc1cc2c(c(OC)c1OC)-c1ccc(SC)c(=O)cc1C(NC(=O)C13CC4CC(CC(C4)C1)C3)CC2 (single isomer, unassigned) [Derivative, N-desacetyl-N-adamantoyl-thiocolchicine]
Leucocytes / mm^3 ([1]; experiment 1, 6 hours after administration, 2 mg/kg): 9,050 / mm^3 and 8,450 / mm^3 and 9,350 / mm^3
Leucocytes / mm^3 ([1]; experiment 1, before administration, 2 mg/kg): 9,050 / mm^3 and 12,250 / mm^3 and 17,525 / mm^3
Leucocytes / mm^3 ([1]; experiment 2, 6 hours after administration): 5,400 / mm^3
Leucocytes / mm^3 ([1]; experiment 2, before administration, 2 mg/kg): 5,900 / mm^3 and 9,350 / mm^3
Leucocytes / mm^3 ([1]; experiment 3, 6 hours after administration): 13,500 / mm^3
Leucocytes / mm^3 ([1]; experiment 3, before administration, 2 mg/kg): 13,250 / mm^3 and 7,200 / mm^3
cytotoxicity (in words) [2]: no cytotoxicity is detectable
deaths (in words) ([3]; 3 g/kg): no death has been detected
Death rate ([3]; first experiment, 2.000 mg/kg oral): 0/10
Death rate ([3]; first experiment, 3.000 mg/kg oral): 0/10
Death rate ([3]; second experiment, 100 mg/kg oral): 0/6
Death rate ([3]; second experiment, 500 mg/kg oral): 0/6
Death rate ([3]; second experiment, 1,000 mg/kg oral): 0/6
Death rate ([3]; second experiment, 2,000 mg/kg oral): 0/6
Death rate ([3]; second experiment, 3,000 mg/kg oral): 0/6
cytotoxic effect (in words) [4]: no cytotoxic effect has been noticed
% of dead cells ([4]; individual rat, 2 mg/kg, 360 min): 2% and 1% and 0%
embodied radioactivity, mean ([5]; 6 hours after administration, group mean): 10,664±2,087 cpm
cpm / number of lymphocytes, mean ([5]; 6 hours after administration, group mean, factor and spread printed on following lines): 4.71 × 10^-^2 cpm/number of lymphoc
Number of lymphocytes/culture [5, 10]: 172,500 lymphocytes/culture and 244,760 lymphocytes/culture and 261,900 lymphocytes/culture
embodied radioactivity [5, 10]: 8,466 cpm and 8,690 cpm and 14,836 cpm
cpm / number of lymphocytes (immunity response) ([5]; 6 hours after administration, individual rat, factor × 10^-^2, 2 mg/kg): 4.91 × 10^-^2 cpm/number of lymphoc and 3.55 × 10^-^2 cpm/number of lymphoc and 5.66 × 10^-^2 cpm/number of lymphoc
embodied radioactivity, mean ([5]; before administration, group mean): 12,227±2,228 cpm
Number of lymphocytes/culture [5, 11]: 132,480 lymphocytes/culture and 147,000 lymphocytes/culture and 271,460 lymphocytes/culture and 257,060 lymphocytes/culture
embodied radioactivity [5, 11]: 7,384 cpm and 10,195 cpm and 7,709 cpm and 13,619 cpm
inhibition of phagocytosis ([6]; 0.004 μg): 10%
% phagocytosis with respect to controls (= 100%) ([6]; 0.004 μg, Experimentation III): 93.8%
% phagocytosis with respect to controls (= 100%) ([6]; 0.004 μg, Experimentation IV): 85.8%
% phagocytosis with respect to controls (= 100%) ([6]; 0.04 μg, Experimentation III): 84.5%
% phagocytosis with respect to controls (= 100%) ([6]; 0.04 μg, Experimentation IV): 85.9%
% phagocytosis with respect to controls (= 100%) ([6]; 0.04 μg, Experimentation V): 89.9%
% phagocytosis with respect to controls (= 100%) ([6]; 0.4 μg, Experimentation III): 72.8%
% phagocytosis with respect to controls (= 100%) ([6]; 0.4 μg, Experimentation IV): 77.6%
% phagocytosis with respect to controls (= 100%) ([6]; 0.4 μg, Experimentation V): 76.2%
inhibition of phagocytosis ([6]; 4 μg): 65%
% phagocytosis with respect to controls (= 100%) ([6]; 4 μg, Experimentation II): 22.5%
% phagocytosis with respect to controls (= 100%) ([6]; 4 μg, Experimentation III): 33.1%
% phagocytosis with respect to controls (= 100%) ([6]; 4 μg, Experimentation IV): 42.5%
% phagocytosis with respect to controls (= 100%) ([6]; 4 μg, Experimentation V): 39.3%
% phagocytosis with respect to controls (= 100%) ([6]; 5 μg, Experimentation II): 25.9%
% phagocytosis with respect to controls (= 100%) ([6]; 10 μg, Experimentation II): 25.5%
% phagocytosis with respect to controls (= 100%) ([6]; 12.5 μg, Experimentation I): 46.2%
% phagocytosis with respect to controls (= 100%) ([6]; 20 μg, Experimentation II): 31.3%
% phagocytosis with respect to controls (= 100%) ([6]; 30 μg, Experimentation II): 31.1%
% phagocytosis with respect to controls (= 100%) ([6]; 40 μg, Experimentation II): 31.0%
% phagocytosis with respect to controls (= 100%) ([6]; 40 μg, Experimentation III): 43.7%
% phagocytosis with respect to controls (= 100%) ([6]; 40 μg, Experimentation IV): 48.4%
inhibition of phagocytosis of the red blood-corpuscles by the macrophages (in words) ([6]; compared with colchicine): will inhibit phagocytosis of the red blood-corpuscles by the macrophages nearly as colchicine would do
cytotoxicity at 4 h ([7]; Culture I, C3 = 10 μg/ml): 15%
cytotoxicity at 4 h ([7]; Culture I, C6 = 50 μg/ml): 17%
cytotoxicity at 22 h ([7]; Culture I, C3 = 10 μg/ml): 12%
cytotoxicity at 22 h ([7]; Culture I, C6 = 50 μg/ml): 22%
cytotoxicity at 46 h ([7]; Culture I, C3 = 10 μg/ml): 42%
cytotoxicity at 46 h ([7]; Culture I, C6 = 50 μg/ml): 53%
cytotoxicity at 76 h ([7]; Culture I, C3 = 10 μg/ml): 40%
cytotoxicity at 76 h ([7]; Culture I, C6 = 50 μg/ml): 62%
cytotoxicity at 23 h ([7]; Culture II, C1 = 2.5 μg/ml): 8%
cytotoxicity at 23 h ([7]; Culture II, C3 = 10 μg/ml): 11%
cytotoxicity at 23 h ([7]; Culture II, C5 = 30 μg/ml): 16%
cytotoxicity at 46 h ([7]; Culture II, C1 = 2.5 μg/ml): 4%
cytotoxicity at 46 h ([7]; Culture II, C3 = 10 μg/ml): 13%
cytotoxicity at 46 h ([7]; Culture II, C5 = 30 μg/ml): 22%
cytotoxicity at 72 h ([7]; Culture II, C1 = 2.5 μg/ml): 26%
cytotoxicity at 72 h ([7]; Culture II, C3 = 10 μg/ml): 41%
cytotoxicity at 72 h ([7]; Culture II, C5 = 30 μg/ml): 43%
cytotoxicity at 72 h ([7]; Culture II, C6 = 50 μg/ml, *x/x = 2 different tubes): 61%
cytotoxicity at 3 h [7, 12]: 0%
cytotoxicity at 3 h [7, 13]: 0%
cytotoxicity at 3 h [7, 14]: 0%
cytotoxicity at 42 h [7, 12]: 5%
cytotoxicity at 42 h [7, 13]: 7%
cytotoxicity at 42 h [7, 14]: 23%
cytotoxicity at 42 h ([7]; first experimentation, C6 = 50 μg/ml): 32%
cytotoxicity at 68 h [7, 12]: 5%
cytotoxicity at 68 h [7, 13]: 9%
cytotoxicity at 68 h [7, 14]: 20%
cytotoxicity at 72 h [7, 12]: 9%
cytotoxicity at 72 h [7, 13]: 12%
cytotoxicity at 72 h [7, 14]: 35%
cytotoxicity, cultures I and II (in words) ([8]; Cultures I and II): does not seem to be very different from that of colchicine or methanol after 23 hours of incubation; however for longer periods of time and more especially with concentrations C5 and C6 it becomes more substantial
% of dead cells ([8]; first experimentation, 68 hours): very few
% of dead cells ([8]; first experimentation, 72 hours): very few
cytotoxicity, colchicine versus derivative (in words) [8, 12]: substantially the same
cytotoxicity compared with colchicine (in words) ([8]; first experimentation, higher concentrations): more cytotoxic than colchicine itself
cytotoxicity at 6 h ([9]; C1 = 0.01 μg/ml): 1%
cytotoxicity at 6 h ([9]; C2 = 0.1 μg/ml): 1%
cytotoxicity at 6 h ([9]; C3 = 0.5 μg/ml): 0%
cytotoxicity at 6 h ([9]; C4 = 1.0 μg/ml): 1%
cytotoxicity at 6 h ([9]; C5 = 2.5 μg/ml): 1%
cytotoxicity at 6 h ([9]; C6 = 10.0 μg/ml): 1%
cytotoxicity at 30 h ([9]; C1 = 0.01 μg/ml): 64%
cytotoxicity at 30 h ([9]; C2 = 0.1 μg/ml): 54%
cytotoxicity at 30 h ([9]; C3 = 0.5 μg/ml): 50%
cytotoxicity at 30 h ([9]; C4 = 1.0 μg/ml): 49%
cytotoxicity at 30 h ([9]; C5 = 2.5 μg/ml): 45%
cytotoxicity at 30 h ([9]; C6 = 10.0 μg/ml): 67%
cytotoxicity at 48 h ([9]; C1 = 0.01 μg/ml): 93%
cytotoxicity at 48 h ([9]; C2 = 0.1 μg/ml): 95%
cytotoxicity at 48 h ([9]; C3 = 0.5 μg/ml): 91%
cytotoxicity at 48 h ([9]; C4 = 1.0 μg/ml): 94%
cytotoxicity at 48 h ([9]; C5 = 2.5 μg/ml): 88%
cytotoxicity at 48 h ([9]; C6 = 10.0 μg/ml): 91%
